In ChEMBL document CHEMBL1142479, “Studies on the synthesis of neamine-dinucleosides and neamine-PNA conjugates and their interaction with RNA” (Bioorg Med Chem Lett, 2008):

Legend:
[1] = Binding affinity to 18S RNA by surface plasmon resonance
[2] = Binding affinity to 16S RNA by surface plasmon resonance
[3] = Ratio of Kd for 18S RNA to Kd for 16S RNA
[4] = Binding affinity to trans-activation response RNA by surface plasmon resonance

Compound	Kd [1]	Kd [2]	Ratio [3]	Kd [4]
Cc1cn([C@H]2C[C@H](OP(=O)(O)OC[C@H]3O[C@@H](n4cc(C)c(=O)[nH]c4=O)C[C@@H]3O)[C@@H](C(=O)NCCCN[C@H]3[C@@H](O)[C@H](N)C[C@H](N)[C@H]3O[C@H]3O[C@H](CN)[C@@H](O)[C@H](O)[C@H]3N)O2)c(=O)[nH]c1=O	555 µM	316 µM	1.76	533 µM
Cc1cn([C@H]2C[C@H](OP(=O)(O)OC[C@H]3O[C@@H](n4cc(C)c(=O)[nH]c4=O)C[C@@H]3O)[C@@H](C(=O)NCCN[C@H]3[C@@H](O)[C@H](N)C[C@H](N)[C@H]3O[C@H]3O[C@H](CN)[C@@H](O)[C@H](O)[C@H]3N)O2)c(=O)[nH]c1=O	548 µM	304 µM	1.8	634 µM
Cc1cn([C@H]2C[C@H](O)[C@@H](COP(=O)(O)O[C@H]3C[C@H](n4ccc(=O)[nH]c4=O)O[C@@H]3C(=O)NCCN[C@H]3[C@@H](O)[C@H](N)C[C@H](N)[C@H]3O[C@H]3O[C@H](CN)[C@@H](O)[C@H](O)[C@H]3N)O2)c(=O)[nH]c1=O	1210 µM	352 µM	3.45	1000 µM
Cc1cn(CC(=O)N(CCN)CC(=O)NCCN[C@H]2[C@@H](O)[C@H](N)C[C@H](N)[C@H]2O[C@H]2O[C@H](CN)[C@@H](O)[C@H](O)[C@H]2N)c(=O)[nH]c1=O	11 µM	8 µM	1.38	10 µM
NCCN(CC(=O)NCCN[C@H]1[C@@H](O)[C@H](N)C[C@H](N)[C@H]1O[C@H]1O[C@H](CN)[C@@H](O)[C@H](O)[C@H]1N)C(=O)Cn1ccc(=O)[nH]c1=O	17 µM	14 µM	1.21	24 µM
NCCN(CC(=O)NCCN[C@H]1[C@@H](O)[C@H](N)C[C@H](N)[C@H]1O[C@H]1O[C@H](CN)[C@@H](O)[C@H](O)[C@H]1N)C(=O)Cn1cnc2c(N)ncnc21	12 µM	16 µM	0.75	12 µM
Cc1cn(CC(=O)N(CCNC(=O)CN(CCN)C(=O)Cn2ccc(=O)[nH]c2=O)CC(=O)NCCN[C@H]2[C@@H](O)[C@H](N)C[C@H](N)[C@H]2O[C@H]2O[C@H](CN)[C@@H](O)[C@H](O)[C@H]2N)c(=O)[nH]c1=O	20 µM	11 µM	1.81	6 µM
Cc1cn([C@H]2C[C@H](OP(=O)(O)OC[C@H]3O[C@@H](n4ccc(=O)[nH]c4=O)C[C@@H]3O)[C@@H](C(=O)NCCN[C@H]3[C@@H](O)[C@H](N)C[C@H](N)[C@H]3O[C@H]3O[C@H](CN)[C@@H](O)[C@H](O)[C@H]3N)O2)c(=O)[nH]c1=O	479 µM	227 µM	2.11	476 µM
Cc1cn([C@H]2C[C@H](OP(=O)(O)OC[C@H]3O[C@@H](n4cc(C)c(=O)[nH]c4=O)C[C@@H]3O)[C@@H](C(=O)NCCCCCCN[C@H]3[C@@H](O)[C@H](N)C[C@H](N)[C@H]3O[C@H]3O[C@H](CN)[C@@H](O)[C@H](O)[C@H]3N)O2)c(=O)[nH]c1=O	266 µM	208 µM	1.28	115 µM
NC[C@H]1O[C@H](O[C@H]2[C@@H](NCCNC(=O)[C@H]3O[C@@H](n4ccc(=O)[nH]c4=O)C[C@@H]3OP(=O)(O)OC[C@H]3O[C@@H](n4ccc(=O)[nH]c4=O)C[C@@H]3O)[C@@H](O)[C@H](N)C[C@@H]2N)[C@H](N)[C@@H](O)[C@@H]1O	404 µM	180 µM	2.24	417 µM
Cc1cn(CC(=O)N(CCN)CC(=O)NCCN(CC(=O)NCCN[C@H]2[C@@H](O)[C@H](N)C[C@H](N)[C@H]2O[C@H]2O[C@H](CN)[C@@H](O)[C@H](O)[C@H]2N)C(=O)Cn2cc(C)c(=O)[nH]c2=O)c(=O)[nH]c1=O	10 µM	9 µM	1.11	5 µM
NCCN(CC(=O)NCCN(CC(=O)NCCN[C@H]1[C@@H](O)[C@H](N)C[C@H](N)[C@H]1O[C@H]1O[C@H](CN)[C@@H](O)[C@H](O)[C@H]1N)C(=O)Cn1ccc(=O)[nH]c1=O)C(=O)Cn1ccc(=O)[nH]c1=O	35 µM	17 µM	2.06	11 µM
NC[C@H]1O[C@H](O[C@H]2[C@H](O)[C@@H](O)[C@H](N)C[C@@H]2N)[C@H](N)[C@@H](O)[C@@H]1O [NEAMINE]	26 µM	11 µM	2.36	11 µM
Cc1cn(CC(=O)N(CCN)CC(=O)NCCN(CC(=O)NCCN[C@H]2[C@@H](O)[C@H](N)C[C@H](N)[C@H]2O[C@H]2O[C@H](CN)[C@@H](O)[C@H](O)[C@H]2N)C(=O)Cn2ccc(=O)[nH]c2=O)c(=O)[nH]c1=O	25 µM	12 µM	2.08	8 µM
